Test system: T1, CbSITL
T1 construct: gene SITL
Conditions: Na+-dependent; 150 mM external NaCl, 50 mM Tris pH 7.4, internal 150 mM KCl and 6 mM Zn acetate, valinomycin; sigmoidal rate curve

Compound: O[Si](O)(O)O [silicic acid]
- Km: 31.8 ± 2.5 µM

Reference: publication PMC10098502, “Characterization of the molecular mechanisms of silicon uptake in coccolithophores” (Environmental Microbiology, 2022)
